Data from PubChem BioAssay (NCI).
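Compound exposure: 48 hours, 5 concentrations, 96-well plates. At the TGI there is no net growth.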

Tested on: SN12K1 renal
Test: growth of human tumour cells (NCI), 48 h

CNC(=O)OCc1nc(SC2CCCCO2)n(C)c1COC(=O)NC (stereo unspecified)
TGI: > 100 µM
